Results as given in PubChem BioAssay (NCI).
Several values for one entry are separate records, joined by “and”; a condition that tells them apart may be missing. Equal entries are not always repeated.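 The compound was tested at five concentrations on cells cultured in 96-well plates, with a 48-hour exposure period. Here, GI50 denotes the concentration required for 50% inhibition of growth. At the TGI there is no net growth.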

Assays:
Assay in all cases: inhibition of tumour cell growth, NCI panel, 48 h
A498 renal = tested on: A498 renal
CAKI-1 renal = tested on: CAKI-1 renal
CCRF-CEM leukemia = tested on: CCRF-CEM leukemia
EKVX NSCLC = tested on: EKVX NSCLC
MCF7 breast = tested on: MCF7 breast
MDA-MB-231 breast = tested on: MDA-MB-231 breast
NCI-H23 lung = tested on: NCI-H23 lung
OVCAR-4 ovarian = tested on: OVCAR-4 ovarian
RPMI-8226 leukemia = tested on: RPMI-8226 leukemia
SN12C renal = tested on: SN12C renal

Row | SMILES | TGI (A498 renal) [µM] | TGI (CAKI-1 renal) [µM] | TGI (CCRF-CEM leukemia) [µM] | TGI (EKVX NSCLC) [µM] | TGI (MCF7 breast) [µM] | TGI (MDA-MB-231 breast) [µM] | TGI (NCI-H23 lung) | TGI (OVCAR-4 ovarian) [µM] | TGI (RPMI-8226 leukemia) | TGI (SN12C renal) [µM] | GI50 (CAKI-1 renal) [µM] | GI50 (A498 renal) | GI50 (RPMI-8226 leukemia) | GI50 (SN12C renal) [µM] | GI50 (CCRF-CEM leukemia) [µM] | GI50 (NCI-H23 lung) [µM] | GI50 (OVCAR-4 ovarian) [µM]
1 | CC12CC(c3ccccc3O1)C(C(=O)Nc1nccs1)C(=O)N2 (configuration not stated) | > 100 | > 100 | > 100 | 90.7 | > 100 | > 100 | > 100 µM | > 100 | > 100 µM |  |  |  |  |  |  |  | 
2 | CN1COCN=C1NC#N | > 100 | > 100 | > 100 | > 100 |  |  |  | > 100 | > 100 µM | > 100 |  |  |  |  |  |  | 
3 | c1ccc(C2N=C(c3ccccn3)C(c3ccccn3)=NC2c2ccccc2)cc1 (configuration not stated) | > 100 | > 100 | > 100 | > 100 |  |  | > 100 µM | > 100 | > 100 µM |  |  |  |  |  |  |  | 
4 | CC(=O)c1c(-c2ccco2)c(C#N)c(=S)n(C2OC(CO)C(O)C(O)C2O)c1C (configuration not stated) |  | > 100 | > 100 | > 100 | > 100 | > 100 | > 100 µM | > 100 | > 100 µM | > 100 |  |  |  |  |  |  | 
5 | C#CC(O)/C=C/C(O)CCCC(O)CC#CC(O)C#CCCCCC(O)/C=C/CCCC(=O)CCCCCCCCCCCCCCCC(O)C(O)C#CC(=O)O (configuration not stated) |  | > 25 | > 25 | > 25 | > 25 | > 25 | > 25 µM | > 25 | > 25 µM | > 25 |  |  |  |  |  |  | 
6 | COC(=O)c1c(CC(=O)OC(C)C)cc2n(c1=O)Cc1c-2nc2ccccc2c1OC | > 100 | > 100 | > 100 | > 100 |  |  | > 100 µM | > 100 | > 100 µM | > 100 |  |  |  |  |  |  | 
7 | O=C1OC2(CCCCC2)C(Oc2ccc(Cl)cc2)=C1F | > 100 | > 100 | 86.1 | > 100 | > 100 | > 100 |  |  | > 100 µM | > 100 |  |  |  |  |  |  | 
8 | Cc1ccc(N=Nc2c(O)ccc3ccccc23)c(C)c1 | > 100 | > 100 |  |  |  | > 100 | > 100 µM | > 100 | > 100 µM | > 100 |  |  |  |  |  |  | 
9 | Cc1noc(-c2ccc(C(=O)O)[nH]2)c1Br | > 100 | > 100 | > 100 | > 100 | > 100 | > 100 | > 100 µM | > 100 | > 100 µM |  |  |  |  |  |  |  | 
10 | O=C(NNC(=O)c1ccc(Cl)cc1NC(=O)C12CC3CC(CC(C3)C1)C2)c1ccc(Cl)cc1 |  | 73.6 | 62.5 | 69.8 | 87.5 | 51.2 | > 100 µM | > 100 | 38.4 µM | > 100 |  |  |  |  |  |  | 
11 | Cc1cc2ccccc2n2c1nc1ccc(O)cc12 |  | > 10 | > 10 | > 10 | > 10 | > 10 | > 10 µM | > 10 | > 10 µM | > 10 |  |  |  |  |  |  | 
12 | NCCCNCCSP(=O)(O)O | > 75 | > 750 | > 750 | > 750 | > 750 |  | > 750 µM | > 750 | > 750 µM | > 750 |  |  |  |  |  |  | 
13 | O=S1(=O)N=C(SCc2c[nH]c3ccccc23)N(c2ccccc2)c2ccncc21 | 82.2 | > 100 | > 100 | > 100 | > 100 | > 100 | > 100 µM | > 100 |  | > 100 |  |  |  |  |  |  | 
14 | CSCSCC(CO)NC(=O)/C=C\c1c(C)[nH]c(=O)[nH]c1=O (configuration not stated) | 229 | 33.3 | 37.4 | 153 | 29.2 |  | 120 µM | 13.4 | 239 µM | 102 | 2.04 |  |  |  |  |  | 
15 | CC(C)(C)N=C1C(=O)C2(C)CCC1C2(C)C (configuration not stated) | 41.2 | > 100 |  | > 100 | > 100 | > 100 | > 100 µM | > 100 | > 100 µM |  |  |  |  |  |  |  | 
16 | C(=Nc1ccc(-c2nc3ccccc3s2)cc1)c1cccs1 | 76.6 | > 100 | 3.76 | > 100 |  |  | > 100 µM | > 100 | > 100 µM | > 100 |  |  |  |  |  |  | 
17 | C=CCCCN(C(=O)c1ccccc1)c1ccc(C(=O)OC)o1 | > 100 | > 100 |  | > 100 | > 100 | > 100 | > 100 µM | > 100 |  | > 100 |  |  |  |  |  |  | 
18 | CCOC(=O)C1=C(N2CCCC2)C(=O)C(C(=O)OCC)C1 (configuration not stated) | > 100 | > 100 |  | > 100 | > 100 | > 100 | > 100 µM | > 100 | > 100 µM | > 100 |  |  |  |  |  |  | 
19 | O=C(Oc1cncc(Cl)c1)c1cc2ccccc2sc1=O |  | > 100 |  | > 100 | > 100 | > 100 | > 100 µM | > 100 | > 100 µM | > 100 |  |  |  |  |  |  | 
20 | CC(C)(C1=NC(C(C)(C)C)CO1)C1=N[C@@H](C(C)(C)C)CO1 (some centres not stated) |  |  | > 100 | > 100 |  |  | > 100 µM | > 100 | > 100 µM | > 100 |  |  |  |  |  |  | 
21 | COc1ccc(/C=C/C(=O)c2cc(CN(C)C)c(O)c(CN(C)C)c2)cc1 | 60.3 | > 100 | > 100 | > 100 | > 100 | 69.6 | > 100 µM |  | > 100 µM | > 100 |  |  |  |  |  |  | 
22 | Cc1c2cc[n+](C)cc2c(C)c2c1[nH]c1ccc(OCC(F)(F)F)cc12 | > 100 | > 64.7 | > 100 | 82.9 |  |  | 5.8 µM and 9.49 µM | > 100 | 43 µM and > 88 µM |  |  | 47 µM and > 100 µM | 4.27 µM and 23.7 µM | 0.123 |  |  | 
23 | COc1cccc(C2C(C#N)=C(N)Oc3cc(OCCCCCC[P+](c4ccccc4)(c4ccccc4)c4ccccc4)ccc32)c1 (configuration not stated) | 2.45 | 3.48 | 3.36 |  |  |  | 2.83 µM | 1.51 | 0.659 µM |  | 1.68 | 1.03 µM | 0.194 µM |  | 0.596 | 0.624 | 0.384
